This is an account of results in patent US9522909B2, “Thiazolidinedione derivatives, preparation thereof and use thereof in cancer treatment” (UNIVERSITE DE LORRAINE, priority 2012, dated 2016).

Data set [1] deals with cryopreserved human hepatocytes (primary culture). The data set is described as follows: Hepatocyte viability (MTT test) on suspended cryopreserved human hepatocytes. The settings on record: 90 minutes incubation, relative to non treated cells. In kind it is cell-based. On the procedure:
The hepatocyte viability corresponds to the percentage of surviving suspended human hepatocytes after 90 minutes of incubation with the compounds of the invention present at a concentration of […].
Hepatocyte viability was measured for different compounds according to the invention with cryopreserved human hepatocytes (primary culture) suspended and distributed in 96-well plates with a density of 0.1×10^6 cells per well, in a […] culture medium per well (DMEM+gentamycin (50 mg/L)+insulin (4 mg/L)+dexamethasone (1 μM)) in a CO2/air (5%/95%) humidified atmosphere at 37° C. After 30 minutes for attaining equilibrium, […] of culture medium containing the tested compounds (dissolved in DMSO) or of medium only containing DMSO (final concentration of 0.1%) were added with stirring at 900 rpm.
Cytotoxicity is evaluated with an MTT (Thiazolyl Blue Tetrazolium Bromide) test. The tested compounds or the DMSO are left to incubate for 90 minutes, and then 10 μL of MTT at 10 mg/10 mL are added per well for 30 mins. Next, the plates are centrifuged for 10 minutes at 2,000 g, the MTT is removed and some DMSO is added in an amount of 100 μL per well. The plates are gently shaked and then absorbance is measured at 595 nm by means of a spectrophotometric reader of micro-plates. The hepatocyte viability measured here corresponds to the percentage of surviving hepatocytes after 90 minutes of incubation with the compounds tested at a concentration of 100 μM, relatively to non treated cells.
The same tests were conducted for a concentration of compounds at 200 μM.
The tests were conducted in two distinct campaigns. In both cases, troglitazone (K) was used as a reference molecule.
(In general: Tetrazolium assays rely on reduction of a dye to a coloured formazan, in cell work by metabolically active cells.)

Another data set concerns MCF7. The data set is described as follows: Antiproliferative activity (MTS) on MCF7. Type of data set: cell-based, human. Particulars: for inhibition at 10 µM / IC50: Homo sapiens, MCF7, 72 hours; for inhibition at 10 µM: 10^-5 M, triplicate, read-out: percentage of inhibition of cell growth, MCF7; for IC50: averages of two independent values. As to the method: (§1) Antiproliferative activity was measured for different compounds according to the invention by analysis of cytoxicity at 10^−5M on diverse cancer cell lines in DMSO in triplicate. For certain molecules and certain lines, the same procedure was used for determining the IC50 values (the required concentration in μM for inhibiting by half the proliferation of the cells), by conducting cytotoxicity tests at concentrations from 0.005 μM to 100 μM in duplicate. The procedure is the following. The cells of the relevant line are sown in the suitable medium (see Table III) added with L-glutamine, with 10% (v/v) of fetal calf serum, 100 IU of penicillin, 100 μg/mL of streptomycin and 1.5 μg/mL of fungizone and maintained under 5% of CO2 at 37° C. 96-well plates are sown with the required number of cells per well (see Table III) in 200 μL of medium. 24 hours later, the chemical compounds to be investigated, dissolved in DMSO, are added and the media are maintained for 72 hours under these conditions with a set final concentration in DMSO (1%). The controls received an equal volume of DMSO. The number of viable cells is measured at 490 nm with the MTS reagent (Promega, Madison Wis.). The IC50s are calculated as the concentrations of compounds inducing 50% inhibition of cell proliferation.
(§2) Tables IV and V below indicate the percentage of inhibition of cell growth, i.e. the percentage of dead cells after treatment with a compound dose of 10^−5 M. The tests were conducted in triplicate.

The subject of another data set is HCT116. The data set is described as follows: Antiproliferative activity (MTS) on HCT116. Type of data set: cell-based. Particulars: Homo sapiens, HCT-116; 10^-5 M, 72 hours, triplicate; read-out: percentage of inhibition of cell growth, HCT116. On the procedure:
as §1, §2

A further data set deals with MDA231. The data set is described as follows: Antiproliferative activity (MTS) on MDA231. Type of data set: cell-based, human. Particulars: for inhibition at 10 µM / IC50: Homo sapiens, MDA-MB-231, 72 hours; for inhibition at 10 µM: 10^-5 M, triplicate, read-out: percentage of inhibition of cell growth, MDA231; for IC50: averages of two independent values. On the procedure: as §1, §2

For a further data set, the system named is MDA435. The data set is described as follows: Antiproliferative activity (MTS) on MDA435. In kind it is cell-based. The settings on record: Homo sapiens, 10^-5 M, 72 hours, triplicate, read-out: percentage of inhibition of cell growth, MDA435. As to the method: as §1, §2
The test system of a further data set is Mia-PaCa. The data set is described as follows: Antiproliferative activity (MTS) on Mia-PaCa. In kind it is cell-based. The settings on record: Homo sapiens, MIA PaCa-2, 72 hours; for inhibition at 10 µM: 10^-5 M, triplicate, read-out: percentage of inhibition of cell growth, Mia-PaCa; for IC50: averages of two independent values. As to the method: as §1, §2

The next data set deals with HepG2. The data set is described as follows: Antiproliferative activity (MTS) on HepG2. Type of data set: cell-based. The settings on record: Homo sapiens, 72 hours; for inhibition at 10 µM: 10^-5 M, triplicate, read-out: percentage of inhibition of cell growth, HepG2; for IC50: averages of two independent values. On the procedure: as §1, §2
The next data set deals with PC3. The data set is described as follows: Antiproliferative activity (MTS) on PC3. Particulars: Homo sapiens, PC-3; 10^-5 M, 72 hours, triplicate; read-out: percentage of inhibition of cell growth, PC3. In kind it is cell-based. On the procedure:
as §1, §2

Another data set concerns LNCaP. The data set is described as follows: Antiproliferative activity (MTS) on LNCaP. Type of data set: cell-based. The settings on record: Homo sapiens, 72 hours; for inhibition at 10 µM: 10^-5 M, triplicate, read-out: percentage of inhibition of cell growth, LNCaP; for IC50: averages of two independent values. On the procedure:
as §1, §2

Counter-ions that a name gives are not always drawn.

On to `Cc1c(C)c2c(c(C)c1O)CCC(C)(CN1C(=O)S/C(=C\c3ccc(O)cc3)C1=O)O2` (racemic) [H, (±) 5-(4-hydroxy-benzylidene)-3-(6-hydroxy-2,5,7,8-tetramethyl-chroman-2-ylmethyl)-thiazolidine-2,4-dione], for which, in data set [1] (Table II campaign), the “Hepatocyte viability % (100 μM)” value worked out at 110%. Also, the “Hepatocyte viability % (200 μM)” value in data set [1] (Table II campaign) amounted to 103%. For the same compound, the inhibition at 10 µM with MCF7 turned out to be 95%; in the data set with HCT116 it was 95%; with MDA231, 95%; in the data set with MDA435, 87%; with Mia-PaCa it was 102%; in the data set with HepG2 it was 79%. Besides, the inhibition at 10 µM with PC3 amounted to 64%; in the data set with LNCaP, 51%. Also, the IC50 stood at 3.4 µM in the data set on MCF7; 1.9 µM in the data set with MDA231; 1.3 µM in the data set with Mia-PaCa; 5.7 µM with HepG2; 6.1 µM in the data set on LNCaP.
Regarding `Cc1c(C)c2c(c(C)c1O)CCC(C)(COc1ccc(/C=C3\SC(=O)N(C)C3=O)cc1)O2` (racemic) [J, (±) 5-[4-(6-Hydroxy-2,5,7,8-tetramethyl-chroman-2-ylmethoxy)-benzylidene]-3-methyl-thiazolidine-2,4-dione], the “Hepatocyte viability % (100 μM)” value in data set [1] (Table II campaign) was determined as 120%. In data set [1] (Table II campaign), the “Hepatocyte viability % (200 μM)” value was 120%. Moreover, the “activity on hormono-dependent breast cancer cells (MCF-7), in words” value with MCF7 is “inactive”. Besides, the inhibition at 10 µM with MCF7 was determined as 0%; with HCT116 it was 32%; in the data set with MDA231 it was 36%; with MDA435, 5%; in the data set on Mia-PaCa, 20%; in the data set with HepG2, 40%. Also, the inhibition at 10 µM in the data set with PC3 was 14%; with LNCaP, 33%. Further, the IC50 with MCF7 was determined as 52.6 µM; in the data set on MDA231, 4.9 µM; in the data set with Mia-PaCa, 24.5 µM; in the data set with HepG2, 20.4 µM; in the data set with LNCaP, 17.4 µM. Besides, the “activity on non-hormono-dependent breast cancer cells (MDA-231), in words” value with MDA231 is “active”.
For the compound `Cc1c(C)c2c(c(C)c1OC(=O)CCCCCCCN)CCC(C)(COc1ccc(/C=C3\SC(=O)N(C)C3=O)cc1)O2` (racemic) [Compound B, (±) 8-amino {2,5,7,8-tetramethyl-2-[4-(3-methyl-2,4-dioxo-thiazolidin-5-ylidenemethyl)-phenoxymethyl]-chroman-6-yl}octanoate trifluoroacetate], the inhibition at 10 µM with MCF7 was found to be 101%; in the data set with HCT116, 99%; in the data set with MDA231, 101%; in the data set on MDA435, 100%; with Mia-PaCa, 101%; with HepG2 it was 92%. The inhibition at 10 µM with PC3 was found to be 98%; in the data set with LNCaP it was 91%. The IC50 in the data set with MCF7 worked out at 0.9 µM; in the data set with MDA231, 0.2 µM; with Mia-PaCa, 0.6 µM; in the data set on HepG2, 1 µM; in the data set with LNCaP, 1 µM.
For the compound `Cc1c(C)c2c(c(C)c1O)CCC(C)(COc1ccc(/C=C3\SC(=O)N(Cc4ccccc4)C3=O)cc1)O2` (stereo not drawn) [G], in data set [1] (Table II campaign), the “Hepatocyte viability % (100 μM)” value turned out to be 87% and the “Hepatocyte viability % (200 μM)” value came out at 63%.
For the compound `Cc1c(C)c2c(c(C)c1CCCCCCNC(=O)OC(C)(C)C)CCC(C)(COc1ccc(/C=C3\SC(=O)NC3=O)cc1)O2` (racemic) [C, (±) Tert-butyl(6-{2-[4-(2,4-dioxo-thiazolidin-5-ylidenemethyl)-phenoxymethyl]-2,5,7,8-tetramethyl-chroman-6-yl}-hexyl)-carbamate], in data set [1] (Table I campaign), the “Hepatocyte viability % (100 μM)” value was determined as 85%. Further, the “Hepatocyte viability % (200 μM)” value in data set [1] (Table I campaign) is 80%. In addition, the inhibition at 10 µM with MCF7 is 24%; in the data set on HCT116, 55%; with MDA231, 51%; with MDA435, 39%; with Mia-PaCa it was 30%; in the data set on HepG2, 77%. Besides, the inhibition at 10 µM in the data set on PC3 is 26%; in the data set with LNCaP, 68%. Further, the IC50 in the data set on MCF7 came to 9.6 µM; with MDA231, 2.1 µM; in the data set on Mia-PaCa it was 8.8 µM; in the data set on HepG2, 2.4 µM; in the data set with LNCaP, 6.4 µM.
For the compound `Cc1c(C)c2c(c(C)c1OC(=O)OC(C)(C)C)CCC(C)(COc1ccc(C=C3SC(=O)N(C)C3=O)cc1)O2` (racemic) [F, (±) tertiobutyl(2,5,7,8-tetramethyl-2-[4-(3-methyl-2,4-dioxo-thiazolidin-5-ylidenemethyl)-phenoxymethyl]-chroman-6-yl)carbonate], in [1] (Table II campaign), the “Hepatocyte viability % (100 μM)” value amounted to 81% and the “Hepatocyte viability % (200 μM)” value came to 66%.
Take `CC1(CN2C(=O)S/C(=C\c3cc(Br)c(O)c(Br)c3)C2=O)CCCCC1` [L, reference compound]: the “Hepatocyte viability % (100 μM)” value in data set [1] (Table I campaign) was 42%. The “Hepatocyte viability % (200 μM)” value in data set [1] (Table I campaign) worked out at 30%. For the same compound, the inhibition at 10 µM in the data set on MCF7 stood at 76%; with HCT116, 87%; with MDA231, 53%; with MDA435 it was 69%; in the data set on Mia-PaCa it was 65%; in the data set with HepG2, 74%. In addition, the inhibition at 10 µM in the data set with PC3 amounted to 47%; in the data set on LNCaP, 81%. Further, the IC50 is 9.3 µM in the data set on MCF7; 5.7 µM with MDA231; 8.1 µM in the data set on Mia-PaCa; 8.8 µM in the data set with HepG2; 1.8 µM in the data set with LNCaP.
Regarding `CCN(CC)c1ccc2c(-c3ccc(NC(=S)NCCCCCCc4c(C)c(C)c5c(c4C)CCC(C)(COc4ccc(/C=C6\SC(=O)NC6=O)cc4)O5)cc3C(=O)O)c3ccc(=[N+](CC)CC)cc-3oc2c1` (racemic) [Compound Q, (±) (9-{2-carboxy-4-[3-(6-{2-[4-(2,4-dioxo-thiazolidin-5-ylidenemethyl)-phenoxy-methyl]-2,5,7,8-tetramethyl-chroman-6-yl}-hexyl)-thioureido]-phenyl}-6-diethylamino-xanthen-3-ylidene)-diethyl-ammonium], the inhibition at 10 µM is 59% in the data set with MCF7; 80% with HCT116; 71% in the data set with MDA231; 59% in the data set on MDA435; 70% with Mia-PaCa; 75% in the data set on HepG2. The inhibition at 10 µM in the data set on PC3 was 60%; with LNCaP, 67%.

A word on the inhibition: it is the relative decrease from the control value, in per cent. One may read the IC50 as the point on the concentration scale where inhibition reaches its midpoint. The low end stands for greater potency, the high end for weaker potency.
